Target: SHP2 (Homo sapiens (Human), UniProt Q06124)
Experiment: SHP2 Allosteric Inhibition Assay (DiFMUP prompt fluorescence)
Assay type: biochemical
Details: 0.5 nM SHP2 activated with 0.5 μM peptide IRS1_pY1172(dPEG8)pY1222; substrate DiFMUP; 25° C.

Row | IC50 [nM] | Structure (SMILES)
1 | 164 | C[C@]1(CN)CCN(c2cnc(-c3cccc(Cl)c3Cl)c(N)n2)C[C@H]1O (single isomer, unassigned) [11 P2]
2 | 38 | C[C@]1(CN)CCN(c2cnc(-c3cccc(Cl)c3Cl)c(N)n2)C[C@H]1O (single isomer, unassigned) [11 P1]

Source: patent US10774065B2, “1-pyridazin-/triazin-3-yl-piper(-azine)/idine/pyrolidine derivatives and compositions thereof for inhibiting the activity of SHP2” (NOVARTIS AG, priority 2014, dated 2020)
